# In patent publication US20120129809A1, “LUNG CANCER TREATMENT” (priority 2009, published 2012):
# Assays:
# [1] = tested on: PTEN-deficient tumor cell lines; settings: PTEN-deficient lines including glioblastoma, prostate, breast, pancreas, lung and colon; cited from earlier work
# A549 = assay: KRAS mutant NSCLC xenograft A549; assay type: in vivo
# [2] = tested on: NSCLC cell lines (KRAS mutant and KRAS wild-type); assay: panel of more than 100 NSCLC cell lines; assay type: cell-based
# H2122 = assay: KRAS mutant NSCLC xenograft H2122; assay type: in vivo
# [3] = tested on: several tumor types, such as sarcomas; assay: clinical development in advanced cancers; assay type: in vivo
# side effects in patients = assay type: in vivo; settings: onset as early as first week of treatment
# [4] = tested on: human tumor cell line xenografts; assay: murine tumor xenograft models utilizing human tumor cell lines; assay type: in vivo; settings: xenografts representing glioblastoma, prostate, breast, lung, colon and pancreatic cancers
# human tumor cell lines = assay: antiproliferative activity in human tumor cell lines; assay type: cell-based; settings: broad range of human tumor cell lines, including NSCLC, fibrosarcoma, glioblastoma, erythroleukemia, prostate, colon, ovarian, endometrial and breast cancers
compound,measurement,setting,value
CO[C@H]1C[C@@H]2CC[C@@H](C)[C@@](O)(O2)C(=O)C(=O)N2CCCCC2C(=O)O[C@H]([C@H](C)C[C@@H]2CC[C@H](OP(C)(C)=O)[C@H](OC)C2)CC(=O)[C@H](C)/C=C(\C)[C@@H](O)[C@H](OC)C(=O)[C@H](C)C[C@@H](C)/C=C/C=C/C=C/1C (stereo in doubt) [Deforolimus],antiproliferative activity,[1],demonstrated antiproliferative activity
same,anti-tumor activity,A549,showed anti-tumor activity
same,activity in KRAS mutant versus KRAS wild-type cells,[2],the same in both KRAS mutant and KRAS wild-type cells
same,anti-tumor activity,H2122,showed anti-tumor activity
same,anti-tumor activity,[3],evidence of anti-tumor activity
same,side effect,side effects in patients,mouth sores typically reported as mucositis
same,in vivo activity,[4],demonstrated in vivo activity
same,metabolism by CYP3A,CYP3A,extensively metabolized by CYP3A
same,antiproliferative activity,human tumor cell lines,demonstrated antiproliferative activity
